In ChEMBL document CHEMBL3992500, “Design, facile synthesis and biological evaluations of novel pyrano[3,2-a]phenazine hybrid molecules as antitumor agents” (Eur J Med Chem, 2017):
Calls of active or inactive are those of the source. No cut-off for these calls is given here.

Key:
[1] = Antitumor activity against mouse H22-H8D8 cells implanted in ICR mouse assessed as tumor growth inhibition at 20 mg/kg, iv relative to control; format: functional; details: read-out: TGI
Mus musculus [2] = experiment: Toxicity in ICR mouse implanted with mouse H22-H8D8 cells assessed as body weight at 20 mg/kg, iv (reference value: 29.89 to 33.78 g); format: organism-based; details: in vivo
[3] = Antitumor activity against mouse H22-H8D8 cells implanted in ICR mouse assessed as tumor growth inhibition at 10 mg/kg, iv relative to control; format: functional; details: read-out: TGI
HepG2 [4] = experiment: Antiproliferative activity against human HepG2 cells after 48 hrs by MTT assay; format: functional, cell-based; details: HepG2, 48 h
HCT-116 = experiment: Antiproliferative activity against human HCT116 cells after 48 hrs by MTT assay; format: functional, cell-based; details: HCT-116, 48 h
[5] = target: DNA topoisomerase 2-alpha (Homo sapiens) (UniProt P11388); experiment: Inhibition of DNA topoisomerase-2alpha (unknown origin) assessed as reduction in enzyme-catalyzed relaxation of pBR322 DNA substrate at 20 uM after 30 mins by ethidium bromide staining based electrophoresis
Mus musculus [6] = experiment: Toxicity in ICR mouse implanted with mouse H22-H8D8 cells assessed as body weight at 10 mg/kg, iv (reference value: 29.89 to 33.78 g); format: organism-based; details: in vivo
A549 = experiment: Antiproliferative activity against human A549 cells after 48 hrs by MTT assay; format: functional, cell-based; details: A549, 48 h
[7] = Antitumor activity against mouse H22-H8D8 cells implanted in ICR mouse assessed as tumor growth inhibition at 5 mg/kg, iv relative to control; format: functional; details: read-out: TGI
MCF7 = experiment: Antiproliferative activity against human MCF7 cells after 48 hrs by MTT assay; format: functional, cell-based; details: MCF7, 48 h
Mus musculus [8] = experiment: Toxicity in ICR mouse implanted with mouse H22-H8D8 cells assessed as body weight at 5 mg/kg, iv (reference value: 29.89 to 33.78 g); format: organism-based; details: in vivo
[9] = target: T1, DNA topoisomerase 1 (Homo sapiens) (UniProt P11387); experiment: Inhibition of DNA topoisomerase-1 (unknown origin) assessed as reduction in enzyme-catalyzed relaxation of pBR322 DNA substrate at 20 uM after 30 mins by ethidium bromide staining based electrophoresis
T1 sequence (whole entry): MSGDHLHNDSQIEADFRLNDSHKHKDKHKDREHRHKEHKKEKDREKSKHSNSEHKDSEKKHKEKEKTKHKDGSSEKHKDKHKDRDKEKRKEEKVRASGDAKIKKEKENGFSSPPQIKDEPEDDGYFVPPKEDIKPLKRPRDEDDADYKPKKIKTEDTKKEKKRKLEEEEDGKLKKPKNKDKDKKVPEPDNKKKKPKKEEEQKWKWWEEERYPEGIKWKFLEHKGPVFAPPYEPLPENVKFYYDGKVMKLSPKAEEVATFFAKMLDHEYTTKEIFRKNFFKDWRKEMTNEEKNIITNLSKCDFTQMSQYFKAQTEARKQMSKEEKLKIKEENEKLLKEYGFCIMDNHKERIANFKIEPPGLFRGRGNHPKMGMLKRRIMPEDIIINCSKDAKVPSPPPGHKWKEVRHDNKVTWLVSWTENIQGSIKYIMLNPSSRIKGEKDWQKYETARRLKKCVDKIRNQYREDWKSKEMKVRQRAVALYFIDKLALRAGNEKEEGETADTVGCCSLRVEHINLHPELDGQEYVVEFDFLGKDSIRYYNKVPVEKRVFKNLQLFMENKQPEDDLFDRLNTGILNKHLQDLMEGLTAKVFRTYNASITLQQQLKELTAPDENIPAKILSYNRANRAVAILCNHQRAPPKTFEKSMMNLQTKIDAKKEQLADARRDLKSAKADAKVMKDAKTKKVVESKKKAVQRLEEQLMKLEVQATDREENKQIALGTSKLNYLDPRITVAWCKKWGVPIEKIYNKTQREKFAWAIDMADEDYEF

HepG2 [10] = experiment: Induction of apoptosis in human HepG2 cells after 24 hrs by Annexin V-APC/7-AAD staining based flow cytometry; format: functional, cell-based
HepG2 [11] = experiment: Induction of apoptosis in human HepG2 cells assessed as increase in Bax/Bcl2 ratio up to 8 uM after 24 hrs by Western blot method; format: functional, cell-based
HepG2 [12] = experiment: Induction of apoptosis in human HepG2 cells assessed as early apoptotic cells at 8 uM after 24 hrs by Annexin V-APC/7-AAD staining based flow cytometry (reference value: 0.774%); format: functional
HepG2 [13] = experiment: Induction of apoptosis in human HepG2 cells assessed as necrotic cells at 8 uM after 24 hrs by Annexin V-APC/7-AAD staining based flow cytometry (reference value: 5.35%); format: functional
HepG2 [14] = experiment: Upregulation of p53 protein expression in human HepG2 cells after 24 hrs by Western blot method; format: functional, cell-based
HepG2 [15] = experiment: Downregulation of cyclin B protein expression in human HepG2 cells after 24 hrs by Western blot method; format: functional, cell-based
HepG2 [16] = experiment: Induction of apoptosis in human HepG2 cells assessed as increase in cytochrome c release from mitochondria to cytosol up to 8 uM after 24 hrs by Western blot method; format: functional, cell-based
HepG2 [17] = experiment: Induction of apoptosis in human HepG2 cells assessed as increase in cleaved caspase-9 expression after 24 hrs by Western blot method; format: functional, cell-based
HepG2 [18] = experiment: Induction of apoptosis in human HepG2 cells assessed as live cells at 8 uM after 24 hrs by Annexin V-APC/7-AAD staining based flow cytometry (reference value: 87%); format: functional
HepG2 [19] = experiment: Induction of apoptosis in human HepG2 cells assessed as late apoptotic cells at 8 uM after 24 hrs by Annexin V-APC/7-AAD staining based flow cytometry (reference value: 6.86%); format: functional
[20] = target: DNA topoisomerase 2-alpha (Homo sapiens) (UniProt P11388); experiment: Inhibition of DNA topoisomerase-2alpha (unknown origin) assessed as reduction in enzyme-catalyzed relaxation of pBR322 DNA substrate at 20 to 500 nM after 30 mins by ethidium bromide staining based electrophoresis
HepG2 [21] = experiment: Induction of apoptosis in human HepG2 cells assessed as live cells at 4 uM after 24 hrs by Annexin V-APC/7-AAD staining based flow cytometry (reference value: 87%); format: functional
HepG2 [22] = experiment: Cell cycle arrest in human HepG2 cells assessed as accumulation at G2/M phase after 24 hrs by propidium iodide staining based flow cytometry; format: functional
HepG2 [23] = experiment: Induction of apoptosis in human HepG2 cells assessed as necrotic cells at 4 uM after 24 hrs by Annexin V-APC/7-AAD staining based flow cytometry (reference value: 5.35%); format: functional
HepG2 [24] = experiment: Induction of apoptosis in human HepG2 cells assessed as early apoptotic cells at 2 uM after 24 hrs by Annexin V-APC/7-AAD staining based flow cytometry (reference value: 0.774%); format: functional
[25] = target: T1, DNA topoisomerase 1 (Homo sapiens); experiment: Inhibition of DNA topoisomerase-1 (unknown origin) assessed as reduction in enzyme-catalyzed relaxation of pBR322 DNA substrate at 2.5 to 5 uM after 30 mins by ethidium bromide staining based electrophoresis
HepG2 [26] = experiment: Induction of apoptosis in human HepG2 cells assessed as late apoptotic cells at 4 uM after 24 hrs by Annexin V-APC/7-AAD staining based flow cytometry (reference value: 6.86%); format: functional
HepG2 [27] = experiment: Induction of apoptosis in human HepG2 cells assessed as increase in cleaved caspase-3 expression after 24 hrs by Western blot method; format: functional, cell-based
HepG2 [28] = experiment: Downregulation of CDK1 protein expression in human HepG2 cells after 24 hrs by Western blot method; format: functional, cell-based
HepG2 [29] = experiment: Cell cycle arrest in human HepG2 cells assessed as accumulation at subG1 phase at 2 to 8 uM after 24 hrs by propidium iodide staining based flow cytometry; format: functional
HepG2 [30] = experiment: Induction of apoptosis in human HepG2 cells assessed as live cells at 2 uM after 24 hrs by Annexin V-APC/7-AAD staining based flow cytometry (reference value: 87%); format: functional
HepG2 [31] = experiment: Induction of apoptosis in human HepG2 cells assessed as necrotic cells at 2 uM after 24 hrs by Annexin V-APC/7-AAD staining based flow cytometry (reference value: 5.35%); format: functional
HepG2 [32] = experiment: Induction of apoptosis in human HepG2 cells assessed as late apoptotic cells at 2 uM after 24 hrs by Annexin V-APC/7-AAD staining based flow cytometry (reference value: 6.86%); format: functional
HepG2 [33] = experiment: Upregulation of p21 protein expression in human HepG2 cells after 24 hrs by Western blot method; format: functional, cell-based
HepG2 [34] = experiment: Induction of apoptosis in human HepG2 cells assessed as early apoptotic cells at 4 uM after 24 hrs by Annexin V-APC/7-AAD staining based flow cytometry (reference value: 0.774%); format: functional

DNA topoisomerase 2-alpha (Homo sapiens), sequence (P11388 whole entry): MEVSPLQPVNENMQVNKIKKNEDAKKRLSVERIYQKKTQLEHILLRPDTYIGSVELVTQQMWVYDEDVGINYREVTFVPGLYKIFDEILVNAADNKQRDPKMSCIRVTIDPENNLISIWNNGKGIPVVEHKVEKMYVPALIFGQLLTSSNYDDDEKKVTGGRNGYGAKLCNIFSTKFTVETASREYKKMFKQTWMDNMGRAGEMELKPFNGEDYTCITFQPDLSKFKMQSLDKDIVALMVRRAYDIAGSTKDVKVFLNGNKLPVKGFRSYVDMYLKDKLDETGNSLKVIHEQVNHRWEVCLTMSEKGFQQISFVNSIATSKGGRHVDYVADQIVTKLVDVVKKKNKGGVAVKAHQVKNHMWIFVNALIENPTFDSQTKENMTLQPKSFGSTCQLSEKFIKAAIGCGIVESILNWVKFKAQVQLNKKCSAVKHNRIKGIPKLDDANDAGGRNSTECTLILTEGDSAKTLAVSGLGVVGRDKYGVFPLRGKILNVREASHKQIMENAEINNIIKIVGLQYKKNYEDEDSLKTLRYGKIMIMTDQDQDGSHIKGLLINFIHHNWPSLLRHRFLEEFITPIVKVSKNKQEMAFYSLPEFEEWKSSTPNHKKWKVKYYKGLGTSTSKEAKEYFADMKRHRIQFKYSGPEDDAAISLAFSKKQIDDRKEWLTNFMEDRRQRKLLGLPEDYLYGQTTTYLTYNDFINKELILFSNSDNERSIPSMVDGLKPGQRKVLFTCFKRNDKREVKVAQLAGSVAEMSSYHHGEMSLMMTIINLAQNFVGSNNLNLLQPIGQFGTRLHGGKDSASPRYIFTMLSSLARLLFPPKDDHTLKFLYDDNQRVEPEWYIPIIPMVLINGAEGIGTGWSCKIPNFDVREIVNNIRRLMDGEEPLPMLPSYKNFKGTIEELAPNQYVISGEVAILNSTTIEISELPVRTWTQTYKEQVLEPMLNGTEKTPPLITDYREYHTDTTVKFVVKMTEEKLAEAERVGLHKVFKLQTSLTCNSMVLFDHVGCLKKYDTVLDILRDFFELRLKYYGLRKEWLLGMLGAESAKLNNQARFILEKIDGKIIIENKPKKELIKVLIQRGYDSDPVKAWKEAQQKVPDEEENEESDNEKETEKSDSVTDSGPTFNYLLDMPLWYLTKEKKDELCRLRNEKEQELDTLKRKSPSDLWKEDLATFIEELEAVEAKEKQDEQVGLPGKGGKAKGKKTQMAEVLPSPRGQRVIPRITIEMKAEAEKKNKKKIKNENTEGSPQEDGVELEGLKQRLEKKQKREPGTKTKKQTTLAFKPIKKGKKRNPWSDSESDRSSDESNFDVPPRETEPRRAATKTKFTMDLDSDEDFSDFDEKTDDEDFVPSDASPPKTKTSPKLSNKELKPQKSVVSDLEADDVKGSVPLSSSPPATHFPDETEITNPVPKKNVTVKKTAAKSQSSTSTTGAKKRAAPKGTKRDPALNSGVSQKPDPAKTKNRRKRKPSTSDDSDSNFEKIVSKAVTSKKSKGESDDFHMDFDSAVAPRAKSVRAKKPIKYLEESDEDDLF

CCOC(=O)C1=C(N)Oc2c(N)cc3nc4ccccc4nc3c2C1c1cccc(Cl)c1Cl (stereo unspecified)
inhibition in vivo at 20 mg/kg [1]: 26.1%
Activity (Mus musculus [2]): 40.33 g
inhibition in vivo at 10 mg/kg [3]: 4.5%
IC50 (HepG2 [4]): 4.48 µM
IC50 (HCT-116): 7.8 µM
inhibition [5]: Active
Activity (Mus musculus [6]): 39.22 g
IC50 (A549): 7.24 µM
inhibition in vivo at 5 mg/kg [7]: 27%
IC50 (MCF7): > 50 µM
Activity (Mus musculus [8]): 37.78 g
inhibition [9]: Active

O=P1(N(CCCl)CCCl)NCCCO1 (stereo unspecified) [CYCLOPHOSPHAMIDE ANHYDROUS]
inhibition in vivo at 20 mg/kg [1]: 66.7 to 67.8%
Activity (Mus musculus [2]): 34.3 to 35.6 g

COc1cc([C@@H]2c3cc4c(cc3[C@@H](O[C@@H]3O[C@@H]5CO[C@@H](C)O[C@H]5[C@H](O)[C@H]3O)[C@H]3COC(=O)[C@H]23)OCO4)cc(OC)c1O
inhibition [5]: Active

N#CC1=C(N)Oc2c(N)cc3nc4ccccc4nc3c2C1c1ccc(Cl)c(Cl)c1 (stereo unspecified)
Activity (HepG2 [10]): Dose-dependent effect
Activity (HepG2 [11]): Active
Activity (HepG2 [12]): 3.31%
Activity (HepG2 [13]): 20.7%
Activity (HepG2 [14]): Dose-dependent effect
inhibition in vivo at 20 mg/kg [1]: 77.8%
Activity (HepG2 [15]): Dose-dependent effect
Activity (HepG2 [16]): Active
Activity (HepG2 [17]): Dose-dependent effect
Activity (HepG2 [18]): 22.5%
Activity (Mus musculus [2]): 35.22 g
Activity (HepG2 [19]): 53.5%
inhibition [20]: Active
inhibition in vivo at 10 mg/kg [3]: 68.9%
Activity (HepG2 [21]): 44.7%
Activity (HepG2 [22]): Dose-dependent effect
Activity (HepG2 [23]): 14.9%
Activity (HepG2 [24]): 3.1%
inhibition [25]: Active
Activity (HepG2 [26]): 31.5%
IC50 (HepG2 [4]): 2.1 µM
IC50 (HCT-116): 8 µM
inhibition [5]: Active
Activity (HepG2 [27]): Dose-dependent effect
Activity (Mus musculus [6]): 35.33 g
Activity (HepG2 [28]): Dose-dependent effect
IC50 (A549): 6.8 µM
Activity (HepG2 [29]): Active
inhibition in vivo at 5 mg/kg [7]: 7.78%
IC50 (MCF7): 7.3 µM
Activity (HepG2 [30]): 80%
Activity (HepG2 [31]): 5.65%
Activity (Mus musculus [8]): 38 g
Activity (HepG2 [32]): 11.2%
Activity (HepG2 [33]): Dose-dependent effect
Activity (HepG2 [34]): 8.97%
inhibition [9]: Active

N#CC1=C(N)Oc2c(N)cc3nc4ccccc4nc3c2C1c1ccc(Cl)cc1 (stereo unspecified)
inhibition in vivo at 20 mg/kg [1]: 57.7%
Activity (Mus musculus [2]): 37.22 g
inhibition in vivo at 10 mg/kg [3]: 11.7%
IC50 (HepG2 [4]): 2.2 µM
IC50 (HCT-116): 10.2 µM
inhibition [5]: Active
Activity (Mus musculus [6]): 41.33 g
IC50 (A549): 9.5 µM
inhibition in vivo at 5 mg/kg [7]: 0.09%
IC50 (MCF7): 18.6 µM
Activity (Mus musculus [8]): 40 g
inhibition [9]: Active

CC[C@@]1(O)C(=O)OCc2c1cc1n(c2=O)Cc2cc3cc(O)ccc3nc2-1 [HYDROXYCAMPTOTHECIN]
IC50 (HepG2 [4]): 10.1 µM
IC50 (HCT-116): 3.5 µM
IC50 (A549): 0.8 µM
IC50 (MCF7): 2.4 µM
inhibition [9]: Active

CCOC(=O)C1=C(N)Oc2c(N)cc3nc4ccccc4nc3c2C1c1ccccc1Br (stereo unspecified)
inhibition in vivo at 20 mg/kg [1]: 45.6%
Activity (Mus musculus [2]): 35.56 g
inhibition in vivo at 10 mg/kg [3]: 28.9%
IC50 (HepG2 [4]): 5 µM
IC50 (HCT-116): 30.2 µM
inhibition [5]: Active
Activity (Mus musculus [6]): 37.44 g
IC50 (A549): 6.32 µM
inhibition in vivo at 5 mg/kg [7]: 38.9%
IC50 (MCF7): 28.4 µM
Activity (Mus musculus [8]): 35.78 g
inhibition [9]: Active
